Reference: patent US20200069775A1, “BRAIN OSTEOCALCIN RECEPTOR AND COGNITIVE DISORDERS” (The Trustees of Columbia University in the City of New York, priority 2017, published 2020)

Assays:
[1] = tested on: Bdnf accumulation in the hippocampus; experiment: BDNF accumulation (Western blot) in hippocampus after peripheral osteocalcin; format: in vivo, mouse; details: WT mice injected peripherally, 16 hours (FIG. 13h)
Method: FIG. 13. Exogenous osteocalcin improves anxiety and cognition in aged WT mice. (Panel a) EPMT performed in aged mice receiving plasma from aged, young WT, or young Ocn−/− mice, and aged WT mice receiving plasma from young Ocn−/− supplemented with 90 ng/g osteocalcin. Number of entries and time spent (s) in the open arms were scored. (Panel b) NOR performed in aged WT mice receiving plasma from WT mice either aged or young, or from young Ocn−/− mice or from young Ocn−/− supplemented with 90 ng/g osteocalcin. Preference index (time spent with novel object/total exploration time) was measured for each group. (Panel c) BDNF accumulation (representative Western blot, left) and quantification of band intensities (right) in hippocampi of aged WT mice receiving plasma from WT, either aged or young, or from young Ocn−/− mice. α-Tubulin is used as a loading control. (Panel d) DLT performed in 12 and 16 month-old WT mice treated with vehicle or osteocalcin. Number of entries in the lit compartment was measured. (Panel e) EPMT performed in 12 and 16 month-old WT mice treated with vehicle or osteocalcin. Time spent in the lit compartment and open arms was measured. (Panel f) MWMT performed over 10 days in 12 and 16 month-old WT mice treated with vehicle or osteocalcin. […] Preference index (time spent with novel object/total exploration time) was measured for each group. […]

[2] = tested on: mouse primary hindbrain neurons (MPHN); experiment: Gene expression in mouse primary hindbrain neurons (MPHN); format: cell-based; details: osteocalcin 3 ng/ml, 2 or 4 hours; WT and Gprc6a−/− primary brainstem neuronal culture
Method: For gene expression studies, RNA was isolated from primary neurons or tissue using TRIZOL® (Invitrogen). cDNA synthesis was performed following a standard protocol from Invitrogen and qPCR analyses were done using specific quantitative PCR primers from SABiosciences (http://www.sabiosciences.com/RT2PCR.php).
For primary culture of hindbrain neurons, E14.5 embryos were obtained from matings of 129-Sv WT mice. Hindbrains were dissected out and collected in ice-cold filter sterilized HBSS buffered with 10 mM HEPES until dissection was complete, at which point they were finely chopped into 2 mm cubes, dissociated by trituration with a fire-polished Pasteur pipette and spun down at 4° C. Cells were then plated onto poly-D-lysine coated coverslips or dishes in Neurobasal medium supplemented with 2% B27, 0.25 mM Glutamax, 0.25 mM L-glutamine, penicillin G (50 U/ml), and streptomycin sulphate ([…]). Cultures were fed every 3-6 days with one half replacement medium without L-glutamine.
To determine if osteocalcin acts directly on neurons to modulate neurotransmitter synthesis, several types of assays were performed. First, brainstem and midbrain explants from WT and Gprc6a^−/− mice were generated. […] Third, to further confirm that osteocalcin signals in neurons of the hindbrain, calcium flux in MPHN treated with undercarboxylated or carboxylated osteocalcin (FIG. 3F) was measured.

osteocalcin: Recombinant osteocalcin bacterially produced, cleaved from the GST subunit; completely undercarboxylated at all three sites; full-length mouse osteocalcin (YLGASVPSPDPLEPTREQCELNPACDELSDQYGLKTAYKRIYGITI)
Bdnf accumulation in the hippocampi [1]: increased | Tph2 expression [2]: increased more than three-fold | decrease of GAD1 expression [2]: 65%
